Assays:
GluR1 = test: Immunocytochemical staining of surface and internalized GluR1 in cultured hippocampal neurons; assay type: cell-based
Procedure: Immunocytochemical staining. Immunocytochemical staining of heterologous cells was performed as described (Xu et al., supra). For PMA-stimulation experiments, PMA (Sigma Cat #: P8139) at (150 nM) was added 90 minutes prior to live staining. Images were viewed and captured using Nikon E800 epifluorescence microscope fitted with a Princeton Instruments CCD camera. For live staining, neurons cultured on coverslips were incubated at 10° C. with the appropriate primary antibodies at the indicated dilutions in conditioned culture medium for 20 min. They were then washed with PBS and fixed with 4% paraformaldehyde/4% sucrose in PBS for 20 min at room temperature. Cells were permeablized with 0.2% Triton X-100 in PBS for 5 min and then blocked in 10% normal goat serum in PBS for 1 hr at room temperature. If intracellular proteins were of interest, coverslips were then incubated with antibody diluted in 10% normal goat serum for 1 hr at room temperature or overnight at 4° C. Coverslips were washed with PBS and incubated with secondary antibody conjugated to Alexa488 and Alexa555 (1:500 in 10% normal goat serum, Molecular Probes Eugene, Oreg.). Coverslips were mounted using the Prolong Antifade Kit (Molecular Probes, Eugene, Oreg.). For immunocytochemistry studies, mGluR1/5 were activated using the selective agonist (S)-DHPG (Tocris Cat.# 0805) with mGluR5 allosteric potentiator DFB (Tocris Cat.#1625). Neurons were incubated with DFB (50 μM) for 5 min and then DHPG (50 μM) for an additional 5 min in neuronal incubation medium and then transferred into the original incubation medium. […] Cells were incubated at 37° C. to allow endocytosis. At indicated time points, cells were incubated with N-terminal GluR1 mouse antibody (JH 4093; 0.2 μg/100 μl; kind gift from T. […] (to block endocytosis during staining). Cells were then processed for immunofluorescent staining as described above. An acid strip protocol was employed to measure endocytosed antibody labeled GluR1 (Snyder et al., 2001). Neurons were washed with progressively cooler NIM to slow basal endocytosis. Cells were then live labeled at 10° C. with GluR1 N-terminal antibody (0.2 μg/100 μL JH4094) antibody in NIM for 20 min. After washing unbound excess antibody, cells were incubated sequentially with DFB, DHPG, and original incubation medium at 37° C., as described above. After appropriate incubation times, cells were washed with 4° C. TBS. […] Neurons were then washed with 4° C. TBS followed by processing for immunofluorescent staining as described above. All neurons were viewed and captured using UltraVIEW spinning disk confocal microscope (PerkinElmer Life Sciences, Wellesley, Mass., USA) with a Nikon Eclipse TE 200 microscope and a 63× objective (Nikon, Melville, N.Y.). Images were acquired and saved as Tiff files with a dynamic range of 65536 grey levels (16-bit binary). Image analysis was performed using Metamorph imaging software (Universal Imaging, Downingtown, Pa.). For quantification of the punctate structures (e.g. GluR1), images were thresholded by grey value to differentiate single puncta. Segments of dendrites were selected and number of puncta was calculated per […] of length dendrite. Figures show ratios of calculated mean densities (number of puncta per unit length) from treated/control. Error bars were calculated using SEM and Gaussian error propagation. n=number of measured dendrites. Significance was determined by paired Student's T-test.

[1] = test system: cultured cerebellar Purkinje cells; test: Basal electrophysiological properties and Ca2+ imaging in cultured cerebellar Purkinje cells; assay type: cell-based, mouse; details: TAPI-2 10 μM; GM6001 1 μM; GM6001 control 1 μM; mean ± SEM
Procedure: Recording and Ca^2+ imaging in cerebellar cultures. Cultures of embryonic mouse cerebellum were prepared as previously described and recordings were performed according to our previously published method (Leitges et al., Neuron 44:585-94, 2004). […]. Test pulses were delivered using negative current pulses (300-700 nA, 30-80 msec duration). LTD-inducing pairing stimuli consisted of six, 3-s-long depolarizations to 0 mV, each delivered together with a test pulse of glutamate.
Membrane currents were recorded with an Axopatch 200A amplifier, and digitized at 10 kHz for exogenous glutamate responses and 20 kHz for mEPSCs. Signals were lowpass filtered at 5 kHz (1 kHz for mEPSCs) and acquired using Axograph X software (Axograph Scientific, Sydney, Australia). Recordings in which Rinput or Rseries varied by more than 10% were excluded from the analysis. For analysis of mEPSCs, Axograph X mini analysis software was used. This detected events based on closeness of fit of the mEPSC to a sliding template. Events smaller than − ? 4 pA were discarded. A separate template was created for each recording by averaging 30 of its most unambiguous mEPSCs as selected by eye.
Bis-Fura-2 ratio imaging of intracellular free Ca^2+ in the dendritic shafts of cultured Purkinje cells was accomplished by measuring the background corrected fluorescence ratio at 340 and 380 nm excitation using a cooled CCD camera system. In these experiments, EGTA was removed from the internal saline and replaced with 100 μM bis-Fura-2.

[2] = test system: NPR cleavage at Site A (TACE); test: NPR cleavage assay in transfected HEK293T cells; assay type: cell-based, rat; details: TAPI-2 50 μM; GM6001 25 μM
Procedure: Cleavage Assay HEK293T cells were plated in OptiMEM (Invitrogen, Carlsbad, Calif.) containing 5% FBS onto 6-well dishes at a density of 4×10^5 cells/mL (2 mL/well) 1 day before transfection. Cells were transfected with NPR in pRK5 using LipofectAMINE 2000 (Invitrogen, Carlsbad Calif.). After 24 hr the medium was replaced with serum-free OptiMEM. […] Samples from each well were obtained at specific time points, immediately placed on ice, centrifuged at 15,000 g to remove cell debris, and then treated with 2% β-mercaptoethanol containing loading buffer. At the end of the time course, the cells were lysed with RIPA buffer, centrifuged to remove cell debris, and treated with 2% β-mercaptoethanol in loading buffer. Samples (20 μL of medium or lysate diluted to 1/5) were run on SDS-PAGE gels and analyzed by Western blotting.

[3] = cultured hippocampal neurons DIV 14-17, 45 min after DHPG, TAPI-2 = pretreatment (50 μM) before DHPG
[4] = neurons derived from control mice

SMILES | surface GluR1 puncta density (GluR1; DHPG treated neurons cultured from NP TKO mice) | surface GluR1 puncta density (GluR1; DHPG treated neurons derived from control mice) | surface GluR1 puncta density (GluR1; [3]) | internalized GluR1 (acid-strip protocol) (GluR1; [4]) | time to maximal internalized GluR1 after addition of DHPG (GluR1; [4]) [min] | GluR1 internalization (acid-strip protocol) (GluR1; neurons from NP TKO mice) | DHPG-evoked (dendritic Ca2+ transient) [1] [nM] | Depol-evoked (dendritic Ca2+ transient) [1] [nM] | Resting Ca2+ [1] [nM] | mEPSC 10-90% rise [1] [msec] | mEPSC 50% decay [1] [ms] | mEPSC amp [1] [pA] | PMA-stimulated cleavage at Site A / secretion of LFC-NPR into the medium [2]
N[C@H](C(=O)O)c1cc(O)cc(O)c1 [DHPG, (S)-3,5-dihydroxyphenylglycine] | 113.4±6.3 % of vehicle control | 68.5±6.0 % of vehicle control | 47.6±8.5 % of vehicle control | evoked an increase in internalized GluR1 | ≤ 5 | did not increase GluR1 internalization |  |  |  |  |  |  | 
CC(C)C[C@H](CC(=O)NO)C(=O)N[C@H](C(=O)N[C@@H](C)C(=O)NCCN)C(C)(C)C [TAPI-2] |  |  | 84.7±12.6 % of vehicle control |  |  |  | 231 ± 35 | 604 ± 89 | 109 ± 22 | 1.8 ± 0.4 | 7.7 ± 0.6 | 27 ± 7 | inhibited
